Values of other authors, collected in patent publication US11331329B2, “Fucosylated oligosaccharides for prevention of coronavirus infection” (Glycosyn LLC, priority 2020, dated 2022).

Conditions: oral

Substance: 2′-Fucosyllactose [2′-FL]
- toxicity (natural component of human milk): non-toxic
- high doses that may lead to mild gut discomfort and a reversible osmotic diarrhea (adult): > 10 g per day
